Measured values from patent publication US6972319B1, “Pituitary adenylate cyclase activating peptide (PACAP)receptor 3 (R3) agonists and their pharmacological methods of use” (priority 1999, dated 2005).

The compounds below were run against T1, PACAP-R3 (Homo sapiens, UniProt P41587) (assay: Cyclic AMP SPA on CHO cells expressing PACAP R3). Settings: cAMP SPA, CHO cells transfected with PACAP-R3; concentration at which 50% of maximum PACAP27 activity is achieved; NA = no detectable activities; read-out: R3 EC50.
T1 sequence (P41587 24-438): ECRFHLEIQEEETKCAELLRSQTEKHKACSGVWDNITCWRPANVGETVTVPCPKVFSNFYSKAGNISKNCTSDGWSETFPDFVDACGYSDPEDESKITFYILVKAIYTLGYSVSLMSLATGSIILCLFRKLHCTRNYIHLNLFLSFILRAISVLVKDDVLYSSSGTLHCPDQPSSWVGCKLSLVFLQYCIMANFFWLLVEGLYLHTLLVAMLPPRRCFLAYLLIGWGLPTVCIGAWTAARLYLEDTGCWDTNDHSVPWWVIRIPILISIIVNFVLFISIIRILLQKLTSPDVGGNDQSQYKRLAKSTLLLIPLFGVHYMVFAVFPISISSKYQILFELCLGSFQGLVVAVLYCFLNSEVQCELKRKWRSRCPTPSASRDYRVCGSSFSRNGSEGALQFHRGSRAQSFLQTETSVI
Format: cell-based
Parameters: expressed in transfected cells; host or cells: CHO cells (Geneticin selection)
Procedure: CHO cells expressing the PACAP R3 were plated in 96-well plates (Costar) at 8×10^4 cell/well and grown at 37 C. for 24 hours in α MEM+nucleosides+glutamine (Giobco BRL), 10% FBS, 100 μg/ml Pen/Strep, 0.3 mg/ml glutamine, 1 mM HEPES, 0.5 mg/ml Geneticin (Gibco BRL). The media was removed and the plates were washed with PBS. The cells were incubated with a peptide, in Hepes-PBS-BSA with 0.4 mg/mlSoybean Trypsin Inhibitor, 0.5 mg/ml Bacitracin, 100 uM IBMX, for 15 min at 37 C. Cyclic AMP in the cell extracts was quantitated using the cAMP SPA direct screening assay system (Amersham Pharmacia Biotech Inc, Piscataway, N.J.,). The peptides shown in Table 3 were assayed for cAMP activity.
EC50 is defined as the concentration of the polypeptide at which 50% of maximum PACAP27 activity is achieved. “NA” denotes no detectable activities. “R3 Selectivity” is derived from the ratio of EC50 at R2 versus EC50 at R3.
Work on CSCC[C@H](NC(=O)[C@H](CCC(N)=O)NC(=O)[C@H](CCCCN)NC(=O)[C@H](CCCNC(=N)N)NC(=O)[C@H](Cc1ccc(O)cc1)NC(=O)[C@H](CCCNC(=N)N)NC(=O)[C@H](CO)NC(=O)[C@H](Cc1ccc(O)cc1)NC(=O)[C@H](CO)NC(=O)[C@H](CC(=O)O)NC(=O)[C@@H](NC(=O)[C@H](Cc1ccccc1)NC(=O)[C@H](CCCCN)NC(=O)CNC(=O)[C@H](CC(=O)O)NC(=O)[C@H](CO)NC(=O)[C@@H](N)Cc1c[nH]cn1)[C@@H](C)O)C(=O)N[C@@H](C)C(=O)N[C@H](C(=O)N[C@@H](CCCCN)C(=O)N[C@@H](CCCCN)C(=O)N[C@@H](Cc1ccc(O)cc1)C(=O)N[C@@H](CC(C)C)C(=O)N[C@@H](C)C(=O)N[C@@H](C)C(=O)N[C@H](C(=O)N[C@@H](CC(C)C)C(N)=O)C(C)C)C(C)C [PAC5] yielded an EC50 of 0.7 nM. In the case of CC[C@H](C)[C@H](NC(=O)CNC(=O)[C@H](CC(=O)O)NC(=O)[C@H](CO)NC(=O)[C@@H](N)Cc1c[nH]cn1)C(=O)N[C@@H](Cc1ccccc1)C(=O)N[C@H](C(=O)N[C@@H](CC(=O)O)C(=O)N[C@@H](CO)C(=O)N[C@@H](Cc1ccc(O)cc1)C(=O)N[C@@H](CO)C(=O)N[C@@H](CCCNC(=N)N)C(=O)N[C@@H](Cc1ccc(O)cc1)C(=O)N[C@@H](CCCNC(=N)N)C(=O)N[C@@H](CCCCN)C(=O)N[C@@H](CCC(N)=O)C(=O)N[C@@H](CCSC)C(=O)N[C@@H](CCCCN)C(=O)N[C@H](C(=O)N[C@@H](CCCCN)C(=O)N[C@@H](CCCCN)C(=O)N[C@@H](Cc1ccc(O)cc1)C(=O)N[C@@H](CC(C)C)C(=O)N[C@@H](C)C(=O)N[C@@H](C)C(=O)N[C@H](C(=O)N[C@@H](CC(C)C)C(N)=O)C(C)C)C(C)C)[C@@H](C)O [PAC18], the EC50 is reported as 1.1 nM. Compound CC[C@H](C)[C@H](NC(=O)[C@H](CC(=O)O)NC(=O)[C@H](CC(N)=O)NC(=O)[C@H](CC(C)C)NC(=O)[C@H](Cc1ccc(O)cc1)NC(=O)[C@H](CCCCN)NC(=O)[C@H](CCCCN)NC(=O)[C@@H](NC(=O)[C@H](C)NC(=O)[C@H](CC(C)C)NC(=O)[C@H](CCC(N)=O)NC(=O)[C@H](CCCCN)NC(=O)[C@H](CCCNC(=N)N)NC(=O)[C@H](CC(C)C)NC(=O)[C@H](CCCNC(=N)N)NC(=O)[C@@H](NC(=O)[C@H](Cc1ccc(O)cc1)NC(=O)[C@H](CC(N)=O)NC(=O)[C@H](CC(=O)O)NC(=O)[C@@H](NC(=O)[C@H](Cc1ccccc1)NC(=O)[C@@H](NC(=O)[C@H](C)NC(=O)[C@H](CC(=O)O)NC(=O)[C@H](CO)NC(=O)[C@@H](N)Cc1c[nH]cn1)C(C)C)[C@@H](C)O)[C@@H](C)O)C(C)C)C(=O)N[C@@H](CC(C)C)C(=O)N[C@@H](CCCCN)C(=O)NCC(=O)NCC(=O)N[C@H](C(=O)O)[C@@H](C)O [Peptide R3P28] has an EC50 of 7 nM. In the case of CC[C@H](C)[C@H](NC(=O)[C@H](CC(=O)O)NC(=O)[C@H](CC(N)=O)NC(=O)[C@H](CC(C)C)NC(=O)[C@H](Cc1ccc(O)cc1)NC(=O)[C@H](CCCCN)NC(=O)[C@H](CCCCN)NC(=O)[C@H](C)NC(=O)[C@H](C)NC(=O)[C@H](CC(C)C)NC(=O)[C@H](CCC(N)=O)NC(=O)[C@H](CCCCN)NC(=O)[C@H](CCCNC(=N)N)NC(=O)[C@H](CC(C)C)NC(=O)[C@H](CCCNC(=N)N)NC(=O)[C@@H](NC(=O)[C@H](Cc1ccc(O)cc1)NC(=O)[C@H](CC(N)=O)NC(=O)[C@H](CC(=O)O)NC(=O)[C@@H](NC(=O)[C@H](Cc1ccccc1)NC(=O)[C@@H](NC(=O)[C@H](C)NC(=O)[C@H](CC(=O)O)NC(=O)[C@H](CO)NC(=O)[C@@H](N)Cc1c[nH]cn1)C(C)C)[C@@H](C)O)[C@@H](C)O)C(=O)N[C@@H](CCCCN)C(=O)N[C@@H](CCCCN)C(=O)NCC(=O)O [Peptide R3P32], the EC50 is reported as 0.4 nM. Compound CC[C@H](C)[C@H](NC(=O)CNC(=O)[C@H](CC(=O)O)NC(=O)[C@H](CO)NC(=O)[C@@H](N)Cc1c[nH]cn1)C(=O)N[C@@H](Cc1ccccc1)C(=O)N[C@H](C(=O)N[C@@H](CC(=O)O)C(=O)N[C@@H](CO)C(=O)N[C@@H](Cc1ccc(O)cc1)C(=O)N[C@@H](CO)C(=O)N[C@@H](CCCNC(=N)N)C(=O)N[C@@H](Cc1ccc(O)cc1)C(=O)N[C@@H](CCCNC(=N)N)C(=O)N[C@@H](CCCCN)C(=O)N[C@@H](CCC(N)=O)C(=O)N[C@@H](CC(C)C)C(=O)N[C@@H](C)C(=O)N[C@H](C(=O)N[C@@H](CCCCN)C(=O)N[C@@H](CCCCN)C(=O)N[C@@H](Cc1ccc(O)cc1)C(=O)N[C@@H](CC(C)C)C(=O)N[C@@H](C)C(=O)N[C@@H](C)C(=O)N[C@H](C(=O)N[C@@H](CCCCN)C(=O)N[C@@H](CCCCN)C(=O)O)C(C)C)C(C)C)[C@@H](C)O [Peptide R3P39] has an EC50 of 0.5 nM. With CC[C@H](C)[C@H](NC(=O)CNC(=O)[C@H](CC(=O)O)NC(=O)[C@H](CO)NC(=O)[C@@H](N)Cc1c[nH]cn1)C(=O)N[C@@H](Cc1ccccc1)C(=O)N[C@H](C(=O)N[C@@H](CC(=O)O)C(=O)N[C@@H](CO)C(=O)N[C@@H](Cc1ccc(O)cc1)C(=O)N[C@@H](CO)C(=O)N[C@@H](CCCNC(=N)N)C(=O)N[C@@H](Cc1ccc(O)cc1)C(=O)N[C@@H](CCCNC(=N)N)C(=O)N[C@@H](CCCCN)C(=O)N[C@@H](CCC(N)=O)C(=O)N[C@@H](CCSC)C(=O)N[C@@H](C)C(=O)N[C@H](C(=O)N[C@@H](CCCCN)C(=O)N[C@@H](CCCCN)C(=O)N[C@@H](Cc1ccc(O)cc1)C(=O)N[C@@H](CC(C)C)C(=O)N[C@@H](C)C(=O)N[C@@H](C)C(=O)N[C@H](C(=O)N[C@@H](CCCCN)C(=O)N[C@@H](CCCCN)C(=O)O)C(C)C)C(C)C)[C@@H](C)O [Peptide R3P40] the EC50 was 0.7 nM. CC[C@H](C)[C@H](NC(=O)[C@@H](NC(=O)[C@H](CC(N)=O)NC(=O)[C@H](CC(C)C)NC(=O)[C@H](Cc1ccc(O)cc1)NC(=O)[C@H](CCCCN)NC(=O)[C@H](CCCCN)NC(=O)[C@H](C)NC(=O)[C@H](C)NC(=O)[C@H](CC(C)C)NC(=O)[C@H](CCC(N)=O)NC(=O)[C@H](CCCCN)NC(=O)[C@H](CCCNC(=N)N)NC(=O)[C@H](CC(C)C)NC(=O)[C@H](CCCNC(=N)N)NC(=O)[C@@H](NC(=O)[C@H](Cc1ccc(O)cc1)NC(=O)[C@H](CC(N)=O)NC(=O)[C@H](CC(=O)O)NC(=O)[C@@H](NC(=O)[C@H](Cc1ccccc1)NC(=O)[C@@H](NC(=O)[C@H](C)NC(=O)[C@H](CC(=O)O)NC(=O)[C@H](CO)NC(=O)[C@@H](N)Cc1c[nH]cn1)C(C)C)[C@@H](C)O)[C@@H](C)O)[C@@H](C)O)C(=O)N[C@@H](CCCCN)C(=O)N[C@@H](CC(N)=O)C(=O)N[C@@H](CCCCN)C(=O)N[C@@H](CCCNC(=N)N)C(=O)N[C@@H](Cc1ccc(O)cc1)C(=O)O [Peptide R3P67] gave an EC50 of 0.3 nM. For CC[C@H](C)[C@H](NC(=O)[C@@H](NC(=O)[C@H](CC(N)=O)NC(=O)[C@H](CC(C)C)NC(=O)[C@H](Cc1ccc(O)cc1)NC(=O)[C@H](CCCCN)NC(=O)[C@H](CCCCN)NC(=O)[C@H](C)NC(=O)[C@H](C)NC(=O)[C@H](CCSC)NC(=O)[C@H](CCC(N)=O)NC(=O)[C@H](CCCCN)NC(=O)[C@H](CCCNC(=N)N)NC(=O)[C@H](CC(C)C)NC(=O)[C@H](CCCNC(=N)N)NC(=O)[C@@H](NC(=O)[C@H](Cc1ccc(O)cc1)NC(=O)[C@H](CC(N)=O)NC(=O)[C@H](CC(=O)O)NC(=O)[C@@H](NC(=O)[C@H](Cc1ccccc1)NC(=O)[C@@H](NC(=O)[C@H](C)NC(=O)[C@H](CC(=O)O)NC(=O)[C@H](CO)NC(=O)[C@@H](N)Cc1c[nH]cn1)C(C)C)[C@@H](C)O)[C@@H](C)O)[C@@H](C)O)C(=O)N[C@@H](CCCCN)C(=O)N[C@@H](CC(N)=O)C(=O)N[C@@H](CCCCN)C(=O)N[C@@H](CCCNC(=N)N)C(=O)N[C@@H](Cc1ccc(O)cc1)C(=O)O [Peptide R3P70], the EC50 was 0.4 nM.

Same assay, conditions: ratio of EC50 at R2 versus EC50 at R3
With CC[C@H](C)[C@H](NC(=O)CNC(=O)[C@H](CC(=O)O)NC(=O)[C@H](CO)NC(=O)[C@@H](N)Cc1c[nH]cn1)C(=O)N[C@@H](Cc1ccccc1)C(=O)N[C@H](C(=O)N[C@@H](CC(=O)O)C(=O)N[C@@H](CO)C(=O)N[C@@H](CCCCN)C(=O)N[C@@H](CO)C(=O)N[C@@H](CCCNC(=N)N)C(=O)N[C@@H](Cc1ccc(O)cc1)C(=O)N[C@@H](CCCNC(=N)N)C(=O)N[C@@H](CCCCN)C(=O)N[C@@H](CCC(N)=O)C(=O)N[C@@H](CCSC)C(=O)N[C@@H](C)C(=O)N[C@H](C(=O)N[C@@H](CCCCN)C(=O)N[C@@H](CCCCN)C(=O)N[C@@H](Cc1ccc(O)cc1)C(=O)N[C@@H](CC(C)C)C(=O)N[C@@H](C)C(=O)N[C@@H](C)C(=O)N[C@H](C(=O)N[C@@H](CC(C)C)C(N)=O)C(C)C)C(C)C)[C@@H](C)O [PAC10] the “R3 Selectivity” value was 4.
